Patent publication US9005641B2, “Compositions and methods for preventing or reducing resistance of insects to insecticides” (Rothamsted Research Limited, priority 2002, dated 2015)

Experiments:
[1] = test system: pyrethroid-resistant H. armigera larvae; assay: Synergism studies: PBO pre-treatment before pyrethroid, larval mortality
Procedure: These involved a comparison of esterase inhibition (expressed as % of control, ± standard deviation) incurred by H. armigera larvae over time following topical application of 1 μl PBO (1%), and the effect on mortality of pyrethroid-resistant larvae when exposed to increasing PBO (1 μl, 1% PBO/larva) pre-treatment intervals before fenvalerate (1 μl, 0.125% fenvalerate/larva, FIG. 3) and zeta-cypermethrin (1 μl, 0.01% zeta-cypermethrin/larva, FIG. 4) exposure.

[2] = test system: pyrethroid resistant second instar H. armigera larvae; assay: Field trial on cotton, night sprays; assay type: in vivo, Helicoverpa armigera; conditions: one day after treatment; lambdacyhalothrin 15 g a.i./ha, PBO 320 g a.i./ha; strain 20 fold resistant
Procedure: In the lack of H. armigera pressure on cotton, pyrethroid resistant second instar H. armigera larvae, which were the progeny a field strain originating from Queensland, were placed on cotton plant. The strain was 20 fold resistant to lambdacyhalothrin.
Insecticides were mixed with water.
The trial was conducted on replicated, 1 row×2 m plots. Each plot contained from 13-17 mature cotton plants. There was an unsprayed buffer of two rows between each plot. Just prior to sunset, ten second instar H. armigera larvae were placed onto the terminals of each plant in the test plots and the plots sprayed. H. armigera numbers per plant were assessed one day after treatment. Temperature ranged from 24-26° C. The mean percentage mortality and standard deviation were calculated for each treatment.

CC1(C)C(C=C(Cl)Cl)C1C(=O)OC(C#N)c1cccc(Oc2ccccc2)c1 (racemic) [zeta-cypermethrin, (S)-cyano(3-phenoxyphenyl)-methyl(±)-cis-trans-3-(2,2,-dichloroethenyl)-2,2-dimethylcyclo-propanecarboxylate]
mortality (plateau) ([1]; 1 μl 0.01% zeta-cypermethrin/larva, PBO (1 μl, 1%) pre-treatment interval 4-10 hrs): 100%

CC1(C)[C@H](C(=O)O[C@H](C#N)c2cccc(Oc3ccccc3)c2)[C@@H]1/C=C(\Cl)C(F)(F)F [lambdacyhalothrin]
mortality / control of H. armigera [2]: ~40%

CC(C)C(C(=O)OC(C#N)c1cccc(Oc2ccccc2)c1)c1ccc(Cl)cc1 (stereo not drawn) [fenvalerate, (R—(R*,S*)-4-chloro-α(1-methylethyl)benzeneacetic acid, cyano (3-phenoxyphenyl)methyl ester)]
mortality (plateau) ([1]; 1 μl 0.125% fenvalerate/larva, PBO (1 μl, 1%) pre-treatment interval 4-5 hrs): 100%
